Source: PubChem BioAssay AID1918956 (Molecular Pharmacology Branch, DTP, NCI, 2023)

Tested on: OVCAR-5 complex spheroids, viability
Assay: Anticancer human tumor OVCAR-5 cell line growth inhibition;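 also: spheroids exposed to agents for seven days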;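 as to viability, T/C: 100% = DMSO vehicle control wells viability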
Details: for IC50: curve of first compound; for viability, T/C: stronger effect = lower value
Method in brief: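 Complex spheroids of tumor cells with HUVEC and human MSCs, exposed to iadademstat combined with other agents. Each agent tested in half-log steps from near clinical Cmax (else 10 microM top), DMSO ≤0.25%.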

[1] = second compound 0.1 µM, first compound 0.00949 µM
[2] = second compound 0.1 µM, first compound 0.03 µM
[3] = second compound 0.1 µM, first compound 0.0949 µM
[4] = second compound 0.1 µM, first compound 0.3 µM
[5] = second compound 0.316 µM, first compound 0.00949 µM
[6] = second compound 0.316 µM, first compound 0.03 µM
[7] = second compound 0.316 µM, first compound 0.0949 µM
[8] = second compound 0.316 µM, first compound 0.3 µM
[9] = second compound 1 µM, first compound 0.00949 µM
[10] = second compound 1 µM, first compound 0.03 µM
[11] = second compound 1 µM, first compound 0.0949 µM
[12] = second compound 1 µM, first compound 0.3 µM
[13] = second compound 3.16 µM, first compound 0.00949 µM
[14] = second compound 3.16 µM, first compound 0.03 µM
[15] = second compound 3.16 µM, first compound 0.0949 µM
[16] = second compound 3.16 µM, first compound 0.3 µM
[17] = second compound 10 µM, first compound 0.00949 µM
[18] = second compound 10 µM, first compound 0.03 µM
[19] = second compound 10 µM, first compound 0.0949 µM
[20] = second compound 10 µM, first compound 0.3 µM

Compound CCN(c1cc(-c2ccc(CN3CCOCC3)cc2)cc(C(=O)NCc2c(C)cc(C)[nH]c2=O)c1C)C1CCOCC1 + NC1CCC(NC2CC2c2ccccc2)CC1 has an IC50 (second compound 0.1 µM) of over 3000 nM, an IC50 (second compound 0.316 µM) of over 3000 nM and an IC50 (second compound 1 µM) of over 3000 nM. The IC50 (second compound 3.16 µM) was over 3000 nM, the IC50 (second compound 10 µM) was over 3000 nM and the viability, T/C [1] was 116%. It also gave a viability, T/C [2] of 110%, a viability, T/C [3] of 96.1% and a viability, T/C [4] of 100%. The viability, T/C (second compound 0.1 µM, first compound 0.949 µM) was 106%, the viability, T/C (second compound 0.1 µM, first compound 3 µM) was 101% and the viability, T/C [5] was 109%. For the same compound, the viability, T/C [6] was 114%, the viability, T/C [7] was 101% and the viability, T/C [8] was 108%. The viability, T/C (second compound 0.316 µM, first compound 0.949 µM) was 103%, the viability, T/C (second compound 0.316 µM, first compound 3 µM) was 101% and the viability, T/C [9] was 92.4%. It also gave a viability, T/C [10] of 105%, a viability, T/C [11] of 90.6% and a viability, T/C [12] of 97%. It also gave a viability, T/C (second compound 1 µM, first compound 0.949 µM) of 96.5%, a viability, T/C (second compound 1 µM, first compound 3 µM) of 87.6% and a viability, T/C [13] of 96%. For the same compound, the viability, T/C [14] was 94.5%, the viability, T/C [15] was 94% and the viability, T/C [16] was 81.4%. For the same compound, the viability, T/C (second compound 3.16 µM, first compound 0.949 µM) was 89.9%, the viability, T/C (second compound 3.16 µM, first compound 3 µM) was 94.4% and the viability, T/C [17] was 88.2%. The viability, T/C [18] was 82.1%, the viability, T/C [19] was 93.7% and the viability, T/C [20] was 79.9%. The viability, T/C (second compound 10 µM, first compound 0.949 µM) was 72.5% and the viability, T/C (second compound 10 µM, first compound 3 µM) was 76.4%.
Work on Nc1ncn(C2CC(O)C(CO)S2)c(=O)n1 (stereo not given) + NC1CCC(NC2CC2c2ccccc2)CC1 yielded an IC50 (second compound 0.1 µM) of over 300 nM, an IC50 (second compound 0.316 µM) of over 300 nM and an IC50 (second compound 1 µM) of over 300 nM. For the same compound, the IC50 (second compound 3.16 µM) was over 300 nM, the IC50 (second compound 10 µM) was over 300 nM and the viability, T/C (second compound 0.1 µM, first compound 0.000949 µM) was 119%. The viability, T/C (second compound 0.1 µM, first compound 0.003 µM) was 104%, the viability, T/C [1] was 111% and the viability, T/C [2] was 99.6%. It also gave a viability, T/C [3] of 92.2%, a viability, T/C [4] of 77% and a viability, T/C (second compound 0.316 µM, first compound 0.000949 µM) of 112%. It also gave a viability, T/C (second compound 0.316 µM, first compound 0.003 µM) of 102%, a viability, T/C [5] of 105% and a viability, T/C [6] of 94.6%. The viability, T/C [7] was 93.4%, the viability, T/C [8] was 80.2% and the viability, T/C (second compound 1 µM, first compound 0.000949 µM) was 102%. It also gave a viability, T/C (second compound 1 µM, first compound 0.003 µM) of 99.5%, a viability, T/C [9] of 101% and a viability, T/C [10] of 89.8%. The viability, T/C [11] was 93.9%, the viability, T/C [12] was 80.5% and the viability, T/C (second compound 3.16 µM, first compound 0.000949 µM) was 92%. The viability, T/C (second compound 3.16 µM, first compound 0.003 µM) was 101%, the viability, T/C [13] was 94.1% and the viability, T/C [14] was 96.9%. The viability, T/C [15] was 89%, the viability, T/C [16] was 75.8% and the viability, T/C (second compound 10 µM, first compound 0.000949 µM) was 91%. It also gave a viability, T/C (second compound 10 µM, first compound 0.003 µM) of 81.9%, a viability, T/C [17] of 85.9% and a viability, T/C [18] of 83.7%. It also gave a viability, T/C [19] of 82.7% and a viability, T/C [20] of 71%.
Work on Nc1ncn(C2CC(O)C(CO)O2)c(=O)n1 (stereo not given) + NC1CCC(NC2CC2c2ccccc2)CC1 yielded an IC50 (second compound 0.1 µM) of over 1000 nM, an IC50 (second compound 0.316 µM) of over 1000 nM and an IC50 (second compound 1 µM) of over 1000 nM. The IC50 (second compound 3.16 µM) was over 1000 nM, the IC50 (second compound 10 µM) was over 1000 nM and the viability, T/C (second compound 0.1 µM, first compound 0.00316 µM) was 103%. For the same compound, the viability, T/C (second compound 0.1 µM, first compound 0.01 µM) was 104%, the viability, T/C (second compound 0.1 µM, first compound 0.0316 µM) was 94.4% and the viability, T/C (second compound 0.1 µM, first compound 0.1 µM) was 89.5%. It also gave a viability, T/C (second compound 0.1 µM, first compound 0.316 µM) of 75.5%, a viability, T/C (second compound 0.1 µM, first compound 1 µM) of 79% and a viability, T/C (second compound 0.316 µM, first compound 0.00316 µM) of 97.7%. For the same compound, the viability, T/C (second compound 0.316 µM, first compound 0.01 µM) was 104%, the viability, T/C (second compound 0.316 µM, first compound 0.0316 µM) was 81.4% and the viability, T/C (second compound 0.316 µM, first compound 0.1 µM) was 79.6%. It also gave a viability, T/C (second compound 0.316 µM, first compound 0.316 µM) of 78.4%, a viability, T/C (second compound 0.316 µM, first compound 1 µM) of 78.4% and a viability, T/C (second compound 1 µM, first compound 0.00316 µM) of 91.8%. It also gave a viability, T/C (second compound 1 µM, first compound 0.01 µM) of 82.3%, a viability, T/C (second compound 1 µM, first compound 0.0316 µM) of 79.6% and a viability, T/C (second compound 1 µM, first compound 0.1 µM) of 81.3%. For the same compound, the viability, T/C (second compound 1 µM, first compound 0.316 µM) was 76%, the viability, T/C (second compound 1 µM, first compound 1 µM) was 73.7% and the viability, T/C (second compound 3.16 µM, first compound 0.00316 µM) was 91.6%. The viability, T/C (second compound 3.16 µM, first compound 0.01 µM) was 93.3%, the viability, T/C (second compound 3.16 µM, first compound 0.0316 µM) was 78.2% and the viability, T/C (second compound 3.16 µM, first compound 0.1 µM) was 76.8%. It also gave a viability, T/C (second compound 3.16 µM, first compound 0.316 µM) of 70.5%, a viability, T/C (second compound 3.16 µM, first compound 1 µM) of 66.6% and a viability, T/C (second compound 10 µM, first compound 0.00316 µM) of 83.7%. It also gave a viability, T/C (second compound 10 µM, first compound 0.01 µM) of 83.1%, a viability, T/C (second compound 10 µM, first compound 0.0316 µM) of 79.1% and a viability, T/C (second compound 10 µM, first compound 0.1 µM) of 67.1%. The viability, T/C (second compound 10 µM, first compound 0.316 µM) was 61.9% and the viability, T/C (second compound 10 µM, first compound 1 µM) was 66%.
